Values after ≈ are worked out from the molar mass of the structure shown. Active and inactive are the calls of the source. No cut-off for these calls is given here.
Tests used:
in vitro [1] = details: human, Caco-2, pH 7.4
[2] = biological target: Poly [ADP-ribose] polymerase 1 (Homo sapiens, UniProt P09874)
[3] = biological target: Voltage-gated inwardly rectifying potassium channel KCNH2 (Homo sapiens, UniProt Q12809); experiment: Inhibition of human ERG; assay type: toxicity
[4] = Aqueous solubility of the compound at pH 7.4; assay type: physicochemical; details: buffer
physchem = details: buffer, pH 7.4
[5] = biological target: Poly [ADP-ribose] polymerase 2 (Homo sapiens, UniProt Q9UGN5); experiment: Inhibition of human recombinant N-terminal Avi-6His-TEV tagged PARP2 full length expressed in pFastBac expression system incubated for 4 hrs by fluorescence anisotropy binding assay
Poly [ADP-ribose] polymerase 2, sequence (Q9UGN5 whole entry): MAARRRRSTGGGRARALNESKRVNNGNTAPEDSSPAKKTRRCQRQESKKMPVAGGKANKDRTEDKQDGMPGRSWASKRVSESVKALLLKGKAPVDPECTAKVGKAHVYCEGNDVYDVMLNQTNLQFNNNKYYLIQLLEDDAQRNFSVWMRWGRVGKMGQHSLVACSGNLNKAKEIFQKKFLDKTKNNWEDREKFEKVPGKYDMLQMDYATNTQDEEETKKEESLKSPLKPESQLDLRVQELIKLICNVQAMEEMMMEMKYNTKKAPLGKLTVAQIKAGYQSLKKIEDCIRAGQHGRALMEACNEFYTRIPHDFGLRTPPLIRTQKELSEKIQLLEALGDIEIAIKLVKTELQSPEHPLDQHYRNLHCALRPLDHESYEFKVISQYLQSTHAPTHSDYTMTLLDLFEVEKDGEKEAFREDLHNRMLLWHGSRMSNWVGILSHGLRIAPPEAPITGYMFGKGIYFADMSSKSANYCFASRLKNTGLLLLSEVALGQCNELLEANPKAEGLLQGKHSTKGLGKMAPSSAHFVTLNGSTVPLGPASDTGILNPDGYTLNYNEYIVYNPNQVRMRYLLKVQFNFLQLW

in vitro [6] = details: human, liver microsomes
DLD-1 = experiment: Antiproliferative activity against human DLD-1 deficient in BRCA-2 cells measured after 7 days; assay type: functional, cell-based
[7] = biological target: Protein mono-ADP-ribosyltransferase PARP14 (Homo sapiens) (UniProt Q460N5)
[8] = biological target: Protein mono-ADP-ribosyltransferase TIPARP (Homo sapiens) (UniProt Q7Z3E1)
Protein mono-ADP-ribosyltransferase TIPARP (Homo sapiens), sequence (Q7Z3E1 whole entry): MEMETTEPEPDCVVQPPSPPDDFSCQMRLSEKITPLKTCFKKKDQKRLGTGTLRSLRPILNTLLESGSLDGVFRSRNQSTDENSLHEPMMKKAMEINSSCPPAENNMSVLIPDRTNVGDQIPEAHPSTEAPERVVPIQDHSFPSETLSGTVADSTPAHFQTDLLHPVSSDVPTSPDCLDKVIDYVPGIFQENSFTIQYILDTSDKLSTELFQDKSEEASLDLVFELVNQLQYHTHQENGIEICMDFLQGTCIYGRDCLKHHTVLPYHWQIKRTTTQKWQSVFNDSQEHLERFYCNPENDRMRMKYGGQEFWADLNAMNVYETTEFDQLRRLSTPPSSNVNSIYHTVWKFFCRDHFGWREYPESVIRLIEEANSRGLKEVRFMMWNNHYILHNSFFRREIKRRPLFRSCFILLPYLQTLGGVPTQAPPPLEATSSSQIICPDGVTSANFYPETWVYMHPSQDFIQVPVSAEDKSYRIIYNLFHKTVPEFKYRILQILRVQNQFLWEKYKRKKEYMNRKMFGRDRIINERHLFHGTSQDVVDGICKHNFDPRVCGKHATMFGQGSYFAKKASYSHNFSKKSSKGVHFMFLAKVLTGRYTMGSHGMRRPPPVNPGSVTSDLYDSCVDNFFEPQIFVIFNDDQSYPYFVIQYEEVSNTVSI

[9] = biological target: Protein mono-ADP-ribosyltransferase PARP12 (Homo sapiens) (UniProt Q9H0J9)
[10] = biological target: Protein mono-ADP-ribosyltransferase PARP9 (Homo sapiens, UniProt Q8IXQ6)
[11] = biological target: T1, Protein mono-ADP-ribosyltransferase PARP8 (Homo sapiens) (UniProt Q8N3A8)
T1 sequence (whole entry): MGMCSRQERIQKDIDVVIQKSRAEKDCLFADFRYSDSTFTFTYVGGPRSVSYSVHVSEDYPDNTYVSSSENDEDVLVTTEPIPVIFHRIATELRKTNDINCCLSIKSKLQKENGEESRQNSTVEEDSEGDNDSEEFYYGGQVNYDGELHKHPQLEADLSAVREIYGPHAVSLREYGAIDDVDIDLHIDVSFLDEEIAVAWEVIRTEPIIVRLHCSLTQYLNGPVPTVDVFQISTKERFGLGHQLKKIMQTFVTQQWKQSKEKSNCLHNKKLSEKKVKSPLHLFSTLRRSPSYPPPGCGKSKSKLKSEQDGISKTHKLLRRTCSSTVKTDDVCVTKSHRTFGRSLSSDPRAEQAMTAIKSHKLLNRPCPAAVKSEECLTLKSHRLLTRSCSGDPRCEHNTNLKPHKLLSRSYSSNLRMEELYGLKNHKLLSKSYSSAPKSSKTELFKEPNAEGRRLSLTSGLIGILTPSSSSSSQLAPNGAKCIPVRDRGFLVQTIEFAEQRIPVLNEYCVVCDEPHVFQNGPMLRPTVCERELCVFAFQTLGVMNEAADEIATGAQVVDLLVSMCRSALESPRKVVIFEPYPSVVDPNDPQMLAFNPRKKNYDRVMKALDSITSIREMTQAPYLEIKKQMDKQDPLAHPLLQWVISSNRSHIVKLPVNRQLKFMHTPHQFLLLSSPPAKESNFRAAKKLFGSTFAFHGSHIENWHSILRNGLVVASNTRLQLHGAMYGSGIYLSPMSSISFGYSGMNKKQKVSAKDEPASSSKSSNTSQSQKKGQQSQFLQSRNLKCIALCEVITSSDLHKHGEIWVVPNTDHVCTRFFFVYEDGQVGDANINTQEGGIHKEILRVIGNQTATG

[12] = Hematotoxicity in CD34+ hematopoietic stem/progenitor cells (unknown origin) assessed as reduction of cell viability treated for 5 days by cell-tire-Glo-2.0 luminescence based assay; assay type: toxicity, CD34-positive hematopoietic stem/progenitor cell
[13] = biological target: Poly [ADP-ribose] polymerase tankyrase-2 (Homo sapiens) (UniProt Q9H2K2)
[14] = Hematotoxicity in CD34+ hematopoietic stem/progenitor cells (unknown origin) assessed as remaining viable cells treated at 100 nM for 5 days by cell-tire-Glo-2.0 luminescence based assay relative to control; assay type: toxicity, CD34-positive hematopoietic stem/progenitor cell; details: time 5 day, read-out: Activity
[15] = biological target: Protein mono-ADP-ribosyltransferase PARP12 (Homo sapiens, UniProt Q9H0J9)
[16] = biological target: Protein mono-ADP-ribosyltransferase PARP8 (Homo sapiens, UniProt Q8N3A8); experiment: Binding affinity to PARP8 (unknown origin) assessed as apparent dissociation constant; details: read-out: Kd(app)
[17] = Hematotoxicity in CD34+ hematopoietic stem/progenitor cells (unknown origin) assessed as reduction of cell viability treated at 0.00001 to 100 uM for 5 days by cell-tire-Glo-2.0 luminescence based assay relative to control; assay type: toxicity; details: cd34-positive hematopoietic stem/progenitor cell, 120 h, dose lower 1e-05 µM, dose upper 100 µM, time 5 day
[18] = biological target: Protein mono-ADP-ribosyltransferase PARP16 (Homo sapiens, UniProt Q8N5Y8); experiment: Binding affinity to PARP16 (unknown origin) assessed as apparent dissociation constant; details: read-out: Kd(app)
Protein mono-ADP-ribosyltransferase PARP16, sequence (Q8N5Y8 whole entry): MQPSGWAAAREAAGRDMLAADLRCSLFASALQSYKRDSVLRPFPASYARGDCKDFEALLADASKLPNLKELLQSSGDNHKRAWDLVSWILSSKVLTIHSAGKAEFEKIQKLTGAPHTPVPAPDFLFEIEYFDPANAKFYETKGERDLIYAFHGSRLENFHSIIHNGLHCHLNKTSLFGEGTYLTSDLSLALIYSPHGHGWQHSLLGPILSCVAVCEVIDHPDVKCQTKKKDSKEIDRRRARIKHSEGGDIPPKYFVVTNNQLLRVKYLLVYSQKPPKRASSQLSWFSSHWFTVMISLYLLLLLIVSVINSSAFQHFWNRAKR

[19] = biological target: Protein mono-ADP-ribosyltransferase PARP3 (Homo sapiens) (UniProt Q9Y6F1); experiment: Binding affinity to PARP3 (unknown origin) assessed as apparent dissociation constant
Protein mono-ADP-ribosyltransferase PARP3 (Homo sapiens), sequence (Q9Y6F1 whole entry): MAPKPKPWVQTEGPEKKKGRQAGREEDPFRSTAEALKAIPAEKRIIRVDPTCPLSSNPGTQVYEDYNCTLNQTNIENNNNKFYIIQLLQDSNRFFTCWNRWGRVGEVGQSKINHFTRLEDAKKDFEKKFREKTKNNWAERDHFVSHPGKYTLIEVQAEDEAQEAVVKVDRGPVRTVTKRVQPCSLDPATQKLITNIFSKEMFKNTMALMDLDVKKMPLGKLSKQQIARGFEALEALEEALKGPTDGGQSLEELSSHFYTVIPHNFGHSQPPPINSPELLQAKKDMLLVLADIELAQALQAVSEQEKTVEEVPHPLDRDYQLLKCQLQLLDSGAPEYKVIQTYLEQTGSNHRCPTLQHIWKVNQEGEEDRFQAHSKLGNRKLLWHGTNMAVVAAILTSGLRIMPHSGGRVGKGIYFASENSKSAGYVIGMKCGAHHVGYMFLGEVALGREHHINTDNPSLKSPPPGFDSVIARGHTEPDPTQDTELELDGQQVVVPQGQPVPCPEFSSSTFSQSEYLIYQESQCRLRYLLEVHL

[20] = biological target: Poly [ADP-ribose] polymerase tankyrase-1 (Homo sapiens) (UniProt O95271); experiment: Binding affinity to PARP5a (unknown origin) assessed as apparent dissociation constant
[21] = biological target: Protein mono-ADP-ribosyltransferase PARP11 (Homo sapiens, UniProt Q9NR21)
Protein mono-ADP-ribosyltransferase PARP11, sequence (Q9NR21 whole entry): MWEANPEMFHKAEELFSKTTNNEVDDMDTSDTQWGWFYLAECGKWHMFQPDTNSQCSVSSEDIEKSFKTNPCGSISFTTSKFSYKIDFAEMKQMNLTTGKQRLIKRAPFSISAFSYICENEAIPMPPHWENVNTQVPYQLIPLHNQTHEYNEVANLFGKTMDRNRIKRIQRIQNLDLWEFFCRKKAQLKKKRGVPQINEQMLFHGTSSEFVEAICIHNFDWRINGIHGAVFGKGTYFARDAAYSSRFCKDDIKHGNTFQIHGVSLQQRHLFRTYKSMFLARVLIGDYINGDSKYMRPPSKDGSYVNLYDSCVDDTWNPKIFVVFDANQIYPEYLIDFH

Voltage-gated inwardly rectifying potassium channel KCNH2, sequence (Q12809 whole entry): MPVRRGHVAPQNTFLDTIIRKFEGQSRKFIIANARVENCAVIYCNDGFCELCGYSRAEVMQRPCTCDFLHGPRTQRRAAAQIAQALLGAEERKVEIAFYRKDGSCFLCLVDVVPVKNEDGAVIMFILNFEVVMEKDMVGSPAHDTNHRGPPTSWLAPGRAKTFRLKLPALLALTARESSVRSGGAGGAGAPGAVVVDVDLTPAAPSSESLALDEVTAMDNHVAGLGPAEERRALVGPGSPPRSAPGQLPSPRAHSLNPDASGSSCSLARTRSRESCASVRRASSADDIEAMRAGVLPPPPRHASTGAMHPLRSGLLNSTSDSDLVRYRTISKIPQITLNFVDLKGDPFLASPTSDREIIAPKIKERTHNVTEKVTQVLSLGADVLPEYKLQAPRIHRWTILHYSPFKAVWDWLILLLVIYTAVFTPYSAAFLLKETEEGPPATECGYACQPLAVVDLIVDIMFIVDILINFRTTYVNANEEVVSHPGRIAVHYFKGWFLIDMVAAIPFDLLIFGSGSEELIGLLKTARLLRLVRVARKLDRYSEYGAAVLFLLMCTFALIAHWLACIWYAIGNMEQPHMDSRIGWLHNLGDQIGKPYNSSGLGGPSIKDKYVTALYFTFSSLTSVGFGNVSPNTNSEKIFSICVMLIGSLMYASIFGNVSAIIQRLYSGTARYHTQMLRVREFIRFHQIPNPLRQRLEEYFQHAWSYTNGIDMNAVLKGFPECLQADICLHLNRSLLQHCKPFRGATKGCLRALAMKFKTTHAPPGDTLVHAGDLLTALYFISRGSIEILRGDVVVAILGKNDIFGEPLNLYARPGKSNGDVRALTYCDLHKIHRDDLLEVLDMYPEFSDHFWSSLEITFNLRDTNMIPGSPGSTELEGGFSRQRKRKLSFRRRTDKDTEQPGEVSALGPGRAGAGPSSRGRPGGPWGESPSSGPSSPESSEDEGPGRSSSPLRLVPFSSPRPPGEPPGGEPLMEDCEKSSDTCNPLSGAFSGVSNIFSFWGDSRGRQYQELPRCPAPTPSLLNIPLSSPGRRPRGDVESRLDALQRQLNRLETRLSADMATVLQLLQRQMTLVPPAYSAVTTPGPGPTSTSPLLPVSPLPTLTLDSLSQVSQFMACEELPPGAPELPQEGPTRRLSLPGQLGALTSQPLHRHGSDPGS
Poly [ADP-ribose] polymerase 1, sequence (P09874 whole entry): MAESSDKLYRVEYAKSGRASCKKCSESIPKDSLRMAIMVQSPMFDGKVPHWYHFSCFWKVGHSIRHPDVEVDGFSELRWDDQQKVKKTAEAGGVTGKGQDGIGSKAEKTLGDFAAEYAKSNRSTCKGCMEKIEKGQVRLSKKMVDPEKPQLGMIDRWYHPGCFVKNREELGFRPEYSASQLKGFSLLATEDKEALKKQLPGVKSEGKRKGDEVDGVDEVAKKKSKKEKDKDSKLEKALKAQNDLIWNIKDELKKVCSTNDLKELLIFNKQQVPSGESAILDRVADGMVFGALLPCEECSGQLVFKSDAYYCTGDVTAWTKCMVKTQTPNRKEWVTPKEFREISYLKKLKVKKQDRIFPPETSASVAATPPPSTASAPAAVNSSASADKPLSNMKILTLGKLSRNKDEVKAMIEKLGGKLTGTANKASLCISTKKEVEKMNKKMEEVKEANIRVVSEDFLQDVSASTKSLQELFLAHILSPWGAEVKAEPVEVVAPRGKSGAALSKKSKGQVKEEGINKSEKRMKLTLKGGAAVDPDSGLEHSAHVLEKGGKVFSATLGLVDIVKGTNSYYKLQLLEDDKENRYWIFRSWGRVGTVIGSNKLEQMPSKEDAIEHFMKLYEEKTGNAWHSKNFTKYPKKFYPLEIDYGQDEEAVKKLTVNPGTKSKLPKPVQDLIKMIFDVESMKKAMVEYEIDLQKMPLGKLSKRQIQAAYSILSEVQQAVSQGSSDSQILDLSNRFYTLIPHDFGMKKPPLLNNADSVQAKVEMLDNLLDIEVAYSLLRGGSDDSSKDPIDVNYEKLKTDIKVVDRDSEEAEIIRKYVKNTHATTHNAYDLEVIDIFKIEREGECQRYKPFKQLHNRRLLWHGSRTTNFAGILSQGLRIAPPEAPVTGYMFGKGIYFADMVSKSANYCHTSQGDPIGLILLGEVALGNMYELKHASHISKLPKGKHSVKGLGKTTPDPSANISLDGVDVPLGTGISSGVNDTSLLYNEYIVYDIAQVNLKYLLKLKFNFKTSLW

SMILES: Cc1cnc(N2CCN(Cc3ccc4c5c(c(=O)[nH]c4c3)COCC5)CC2)n1C
- efflux ratio (in vitro [1]): 10
- IC50 [2]: 38 nM
- IC50 [3]: > 40000 nM
- solubility [4]: 158 µM (≈ 62.2 µg/mL)
- logD (physchem): 1.9
- IC50 [5]: 6600 nM
- microsomal CLint (in vitro [6]): 8 µL/min/mg

SMILES: CCc1cc2ccc(CN3CCN(c4cnc(C(=O)NC)cn4)CC3)cc2[nH]c1=O
- IC50 [3]: > 40000 nM
- IC50 (DLD-1; Homo sapiens, DLD-1, 168 h): 4400 nM
- solubility [4]: 2 µM (≈ 0.813 µg/mL)
- logD (physchem): 2.7
- IC50 [5]: 5900 nM
- microsomal CLint (in vitro [6]): 18 µL/min/mg

SMILES: C[C@]1(c2nc3c(C(N)=O)cccc3[nH]2)CCCN1 [VELIPARIB]
- Kd(app) [7]: Active
- Kd(app) [8]: Active
- IC50 (DLD-1; dld-1): 750 nM
- Kd(app) [9]: Active
- Kd(app) [10]: Active
- Kd(app) [11]: Active

SMILES: Cn1ncnc1[C@H]1c2n[nH]c(=O)c3cc(F)cc(c23)N[C@@H]1c1ccc(F)cc1 [TALAZOPARIB]
- IC50 at 5 days ([12]; CD34+ hematopoietic stem/progenitor cells): 27 nM
- Activity ([12]; cd34-positive hematopoietic stem/progenitor cell, 120 h, DDE = dose-dependent effect, dose lower 1e-05 µM, dose upper 100 µM, time 5 day): Dde
- Kd(app) [13]: Active
- viability at 120 h, 0.1 µM [14]: 10%
- Kd [15]: > 10000 nM
- Kd [16]: 1100 nM
- Kd(app) [8]: Active
- Activity [17]: 1%
- IC50 (DLD-1; Homo sapiens, DLD-1, 168 h): 2 nM
- Kd(app) [10]: Active

SMILES: Cc1cnc(N2CCN(Cc3ccc4c(c3)[nH]c(=O)c3ccccc34)CC2)n1C
- IC50 [3]: 3900 nM
- solubility [4]: < 12 µM
- logD (physchem): 3.3
- IC50 [5]: 600 nM
- microsomal CLint (in vitro [6]): 26 µL/min/mg

SMILES: CCc1cc2ccc(CN3CCN(c4ncc(C)n4C)CC3)cc2[nH]c1=O
- IC50 [3]: 12000 nM
- IC50 (DLD-1; Homo sapiens, DLD-1, 168 h): 3 nM
- solubility [4]: 224 µM (≈ 81.9 µg/mL)
- logD (physchem): 2.7
- IC50 [5]: 4200 nM
- microsomal CLint (in vitro [6]): 25 µL/min/mg

SMILES: NC(=O)c1cccc2cn(-c3ccc([C@@H]4CCCNC4)cc3)nc12 [NIRAPARIB]
- Kd [18]: > 10000 nM
- Kd(app) [19]: Active
- Kd(app) [20]: Active
- Kd [21]: > 10000 nM
- IC50 (DLD-1; Homo sapiens, DLD-1, 168 h): 149 nM
- Kd(app) [10]: Active
- Kd(app) [11]: Active

SMILES: CCc1cc2ccc(CN3CCN(c4ccc(F)cc4F)CC3)cc2[nH]c1=O
- IC50 [2]: 8 nM
- IC50 [3]: 2300 nM
- IC50 (DLD-1; Homo sapiens, DLD-1, 168 h): 1 nM
- solubility [4]: 0.2 µM (≈ 0.0767 µg/mL)
- logD (physchem): 4.2
- IC50 [5]: > 26000 nM
- microsomal CLint (in vitro [6]): 16 µL/min/mg

SMILES: Cc1cnc(N2CCN(CCCc3nc4c(Cl)cccc4c(=O)[nH]3)CC2)n1C
- IC50 [3]: 1500 nM
- IC50 (DLD-1; Homo sapiens, DLD-1, 168 h): 180 nM
- solubility [4]: 4 µM (≈ 1.6 µg/mL)
- logD (physchem): 2.3
- IC50 [5]: 4000 nM
- microsomal CLint (in vitro [6]): 44 µL/min/mg

SMILES: O=c1[nH]c(CCCN2CC=C(c3ccc(F)cc3)CC2)nc2c(Cl)cccc12
- IC50 [2]: 65 nM
- IC50 [3]: 2600 nM
- IC50 (DLD-1; Homo sapiens, DLD-1, 168 h): > 23000 nM
- solubility [4]: 56 µM (≈ 22.3 µg/mL)
- logD (physchem): 3.8
- IC50 [5]: 20000 nM
- microsomal CLint (in vitro [6]): 35 µL/min/mg

SMILES: CCc1cc2ccc(CN3CCN(c4ccc(C(=O)NC)nn4)CC3)cc2[nH]c1=O
- efflux ratio (in vitro [1]): 1.5
- IC50 [2]: 4 nM
- IC50 [3]: > 40000 nM
- IC50 (DLD-1; Homo sapiens, DLD-1, 168 h): 294 nM
- solubility [4]: 30 µM (≈ 12.2 µg/mL)
- logD (physchem): 2.4
- IC50 [5]: 7400 nM
- microsomal CLint (in vitro [6]): 14 µL/min/mg

SMILES: Cc1cnc(N2CCN(Cc3ccc4c(c3)[nH]c(=O)c3cccnc34)CC2)n1C
- efflux ratio (in vitro [1]): 1.3
- IC50 [2]: 30 nM
- IC50 [3]: 11000 nM
- IC50 (DLD-1; Homo sapiens, DLD-1, 168 h): 15 nM
- solubility [4]: 15 µM (≈ 5.83 µg/mL)
- logD (physchem): 2.5
- IC50 [5]: 9100 nM
- microsomal CLint (in vitro [6]): 30 µL/min/mg
